The source made the active and inactive calls. No cut-off for these calls is given here.
Legend:
SMMC-7721 = assay: Cytotoxicity against human SMMC-7721 cells assessed as reduction in cell viability by MTT assay; format: functional, cell-based
HepG2 = assay: Cytotoxicity against human HepG2 cells assessed as reduction in cell viability by MTT assay; format: functional, cell-based
J82 = assay: Cytotoxicity in human J82 cells assessed as reduction in cell viability by MTT assay; format: functional, cell-based
HUVEC = assay: Cytotoxicity against HUVEC assessed as reduction in cell viability by MTT assay; format: cell-based; conditions: Homo sapiens
OVCAR-3 [1] = assay: Cytotoxicity against human OVCAR3 cells assessed as reduction in cell viability by MTT assay; format: functional, cell-based
A549 [2] = assay: Cytotoxicity against human A549 cells assessed as reduction in cell viability by MTT assay; format: functional, cell-based
OVCAR-3 [3] = assay: Induction of apoptosis in human OVCAR-3 cells assessed as viable cell at 10 uM after 48 hrs in presence of 4C-TPPBr by Annexin V-FITC/PI staining based flow cytometry (reference value: 98.3%); format: functional
OVCAR-3 [4] = assay: Induction of apoptosis in human OVCAR-3 cells assessed as necrotic cell at 10 uM after 48 hrsin presence of 4C-TPPBr by Annexin V-FITC/PI staining based flow cytometry (reference value: 0.00%); format: functional; conditions: time 48 hrs
OVCAR-3 [5] = assay: Induction of apoptosis in human OVCAR-3 cells assessed as late apoptotic cell at 10 uM after 48 hrs by Annexin V-FITC/PI staining based flow cytometry (reference value: 0.118%); format: functional
OVCAR-3 [6] = assay: Induction of apoptosis in human OVCAR-3 cells assessed as early apoptotic cell at 10 uM after 48 hrs in presence of 4C-TPPBr by Annexin V-FITC/PI staining based flow cytometry (reference value: 1.58%); format: functional
OVCAR-3 [7] = assay: Induction of apoptosis in human OVCAR-3 cells assessed as late apoptotic cell at 10 uM after 48 hrs in presence of 4C-TPPBr by Annexin V-FITC/PI staining based flow cytometry (reference value: 0.118%); format: functional
OVCAR-3 [8] = assay: Induction of apoptosis in human OVCAR-3 cells assessed as early apoptotic cell at 10 uM after 48 hrs by Annexin V-FITC/PI staining based flow cytometry (reference value: 1.58%); format: functional
OVCAR-3 [9] = assay: Induction of apoptosis in human OVCAR-3 cells assessed as viable cell at 10 uM after 48 hrs by Annexin V-FITC/PI staining based flow cytometry (reference value: 98.3%); format: functional
OVCAR-3 [10] = assay: Induction of apoptosis in human OVCAR-3 cells assessed as necrotic cell at 10 uM after 48 hrs by Annexin V-FITC/PI staining based flow cytometry (reference value: 0.00%); format: functional
A549 [11] = assay: Potency index, ratio of cisplatin IC50 to test compound IC50 for human A549 cells; format: functional
OVCAR-3 [12] = assay: Induction of ROS generation in human OVCAR-3 cells at 1 to 10 uM measured after 48 hrs in presence of N-acetyl cysteine by DCFH-DA staining based fluorescence microscopy; format: functional, cell-based; conditions: dose 1-10 µM
OVCAR-3 [13] = assay: Induction of apoptosis in human OVCAR-3 assessed as nuclear blebbing measured after 48 hrs by Hoechst 33258 staining based fluorescence microscopic analysis; format: functional, cell-based; conditions: dose 3-10 µM
OVCAR-3 [14] = assay: Induction of mitochondrial membrane potential loss in human OVCAR-3 cells assessed as mitochondrial depolarization by measuring green fluorescence at 30 uM measured after 48 hrs by JCI staining based fluorescence microscopy (reference value: 3.3 %); format: functional
OVCAR-3 [15] = assay: Potency index, ratio of cisplatin IC50 to test compound IC50 for human OVCAR-3 cells; format: functional
OVCAR-3 [16] = assay: Induction of ROS generation in human OVCAR-3 cells measured after 48 hrs by DCFH-DA staining based fluorescence microscopy; format: functional, cell-based; conditions: dose 1-10 µM
OVCAR-3 [17] = assay: Induction of heme-mediated cell death in human OVCAR-3 cells assessed as reduction in cell viability at 3 to 30 uM pretreated with delta-aminolevulinic acid followed by compound addition by Hoechst 33258 staining based assay; conditions: dose 3-30 µM
OVCAR-3 [18] = assay: Induction of apoptosis in human OVCAR-3 assessed as nuclear rounding measured after 48 hrs by Hoechst 33258 staining based fluorescence microscopic analysis; format: functional, cell-based; conditions: dose 3-10 µM
OVCAR-3 [19] = assay: Cytotoxicity against human OVCAR-3 cells at 1 to 10 uM measured after 72 hrs in presence of N-acetyl cysteine by MTT assay; format: functional, cell-based; conditions: dose 1-10 µM
OVCAR-3 [20] = assay: Induction of apoptosis in human OVCAR-3 assessed as nuclear shrinkage measured after 48 hrs by Hoechst 33258 staining based fluorescence microscopic analysis; format: functional, cell-based; conditions: dose 3-10 µM
[21] = Selectivity index ratio of IC50 for HUVEC to IC50 for human OVCAR3 cells
OVCAR-3 [22] = assay: Induction of heme-mediated cell death in human OVCAR-3 cells assessed as reduction in cell viability at 3 to 30 uM pretreated with succinyl-acetone followed by compound addition by Hoechst 33258 staining based assay; conditions: dose 3-30 µM
OVCAR-3 [23] = assay: Induction of mitochondrial membrane potential loss in human OVCAR-3 cells assessed as mitochondrial depolarization by measuring green fluorescence at 10 uM measured after 48 hrs by JCI staining based fluorescence microscopy (reference value: 3.3 %); format: functional
OVCAR-3 [24] = assay: Induction of mitochondrial membrane potential loss in human OVCAR-3 cells assessed as mitochondrial depolarization by measuring green fluorescence at 3 uM measured after 48 hrs by JCI staining based fluorescence microscopy (reference value: 3.3 %); format: functional

Row | Compound | IC50 (SMMC-7721) [µM] | IC50 (HepG2) [µM] | IC50 (J82) [µM] | IC50 (HUVEC) [µM] | IC50 (OVCAR-3 [1]) [µM] | IC50 (A549 [2]) [µM] | Activity (OVCAR-3 [5]) [%] | Activity (OVCAR-3 [8]) [%] | Activity (OVCAR-3 [9]) [%] | Activity (OVCAR-3 [10]) [%] | also measured
1 | C[C@H]1[C@H](OC(=O)CCC[P+](c2ccccc2)(c2ccccc2)c2ccccc2)O[C@@H]2O[C@@]3(C)CC[C@H]4[C@H](C)CC[C@@H]1[C@@]24OO3 | 34.2 | 35.7 | 115 | 116 | 15.8 | 12.2 | – | – | – | – | –
2 | C[C@H]1[C@H](OC(=O)CCC(=O)OCCCCC[P+](c2ccccc2)(c2ccccc2)c2ccccc2)O[C@@H]2O[C@@]3(C)CC[C@H]4[C@H](C)CC[C@@H]1[C@@]24OO3 | 13 | 16.1 | 29.3 | 27.5 | 6.6 | 5.6 | – | – | – | – | –
3 | C[C@H]1[C@H](OC(=O)CC[P+](c2ccccc2)(c2ccccc2)c2ccccc2)O[C@@H]2O[C@@]3(C)CC[C@H]4[C@H](C)CC[C@@H]1[C@@]24OO3 | 62.7 | 1.2 | 78.8 | 66.5 | 35.7 | 26.5 | – | – | – | – | –
4 | C[C@H]1[C@@H](O)O[C@@H]2O[C@@]3(C)CC[C@H]4[C@H](C)CC[C@@H]1[C@@]24OO3 [ARTENIMOL] | 61.4 | 73.6 | 146 | 180 | 87.2 | 27.8 | 1.97 | 3.61 | 94.4 | 0.062 | Activity (OVCAR-3 [3]): 95.7%; Activity (OVCAR-3 [4]): 0.01%; Activity (OVCAR-3 [6]): 2.74%; Activity (OVCAR-3 [7]): 1.56%
5 | C[C@H]1[C@H](OC(=O)CCCCC[P+](c2ccccc2)(c2ccccc2)c2ccccc2)O[C@@H]2O[C@@]3(C)CC[C@H]4[C@H](C)CC[C@@H]1[C@@]24OO3.[Br-] | 11.9 | 5.3 | 13.9 | 9.1 | 7.1 | 2.7 | – | – | – | – | Ratio IC50 (A549 [11]): 4.8
6 | C[C@H]1[C@H](OC(=O)CCC(=O)O)O[C@@H]2O[C@@]3(C)CC[C@H]4[C@H](C)CC[C@@H]1[C@@]24OO3 [ARTESUNATE] | 72.3 | 47 | 75.7 | 86.1 | 67.3 | 5.4 | – | – | – | – | –
7 | C[C@H]1[C@H](OC(=O)CCC(=O)OCCC[P+](c2ccccc2)(c2ccccc2)c2ccccc2)O[C@@H]2O[C@@]3(C)CC[C@H]4[C@H](C)CC[C@@H]1[C@@]24OO3 | 23.6 | 13 | 43.8 | 18.3 | 16.6 | 5.5 | – | – | – | – | –
8 | O=C(O)CCCC[P+](c1ccccc1)(c1ccccc1)c1ccccc1.[Br-] | – | – | – | – | – | – | 0.625 | 5.81 | 92 | 1.55 | –
9 | C[C@H]1[C@H](OC(=O)CCCC[P+](c2ccccc2)(c2ccccc2)c2ccccc2)O[C@@H]2O[C@@]3(C)CC[C@H]4[C@H](C)CC[C@@H]1[C@@]24OO3.[Br-] | 18 | 5.2 | 41.9 | 24.5 | 3 | 4.7 | 4.04 | 10.5 | 85.4 | 0.078 | Ratio IC50 (A549 [11]): 4.8; Activity (OVCAR-3 [12]): inactive; Activity (OVCAR-3 [13]): Dose-dependent effect; Activity (OVCAR-3 [14]): 95.5%; Ratio IC50 (OVCAR-3 [15]): 4.4; Activity (OVCAR-3 [16]): Active; Activity (OVCAR-3 [17]): inactive; Activity (OVCAR-3 [18]): Dose-dependent effect; Activity (OVCAR-3 [19]): inactive; Activity (OVCAR-3 [20]): Dose-dependent effect; Ratio IC50 [21]: 8.2; Activity (OVCAR-3 [22]): inactive; Activity (OVCAR-3 [23]): 55.4%; Activity (OVCAR-3 [24]): 17.2%
